From ChEMBL document CHEMBL1138274, “Discovery of potent and selective adamantane-based small-molecule P2X(7) receptor antagonists/interleukin-1beta inhibitors” (J Med Chem, 2007)
Active and inactive are the calls of the source. The calls are words filed in the database; no cut-off is given here.

Experiments:
P2X purinoceptor 7 [1] = target: T1, P2X purinoceptor 7 (Homo sapiens, UniProt Q99572); test: Antagonist activity at human P2X7 receptor transfected in THP1 cells assessed as inhibition of benzoyl-ATP-induced changes in plasma membrane pore formation; assay type: functional, cell-based, THP-1; details: read-out: pA2 (converted)
T1 sequence (Q99572 whole entry): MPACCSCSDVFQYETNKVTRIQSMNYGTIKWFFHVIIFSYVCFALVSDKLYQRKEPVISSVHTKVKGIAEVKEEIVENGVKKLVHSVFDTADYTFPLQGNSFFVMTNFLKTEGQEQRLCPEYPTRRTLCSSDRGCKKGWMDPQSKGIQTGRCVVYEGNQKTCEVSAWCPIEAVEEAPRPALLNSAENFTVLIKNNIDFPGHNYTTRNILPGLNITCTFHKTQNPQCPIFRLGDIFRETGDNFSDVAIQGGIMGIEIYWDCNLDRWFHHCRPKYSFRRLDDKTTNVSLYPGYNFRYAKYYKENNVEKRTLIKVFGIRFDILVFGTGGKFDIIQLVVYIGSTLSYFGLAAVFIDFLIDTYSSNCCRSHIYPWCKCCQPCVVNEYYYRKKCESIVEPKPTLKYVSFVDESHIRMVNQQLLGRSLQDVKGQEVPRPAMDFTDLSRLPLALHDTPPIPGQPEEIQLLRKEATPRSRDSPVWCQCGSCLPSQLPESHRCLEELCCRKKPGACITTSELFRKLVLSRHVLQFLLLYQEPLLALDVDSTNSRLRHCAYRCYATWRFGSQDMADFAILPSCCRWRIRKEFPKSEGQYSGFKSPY

P2X purinoceptor 7 [2] = target: T2, P2X purinoceptor 7 (Rattus norvegicus, UniProt Q64663); test: Antagonist activity at rat P2X7 receptor transfected in HEK cells assessed as inhibition of benzoyl-ATP-induced changes in plasma membrane pore formation; assay type: functional, cell-based, HEK293; details: for Kb: read-out: pA2 (converted)
T2 sequence (Q64663 whole entry): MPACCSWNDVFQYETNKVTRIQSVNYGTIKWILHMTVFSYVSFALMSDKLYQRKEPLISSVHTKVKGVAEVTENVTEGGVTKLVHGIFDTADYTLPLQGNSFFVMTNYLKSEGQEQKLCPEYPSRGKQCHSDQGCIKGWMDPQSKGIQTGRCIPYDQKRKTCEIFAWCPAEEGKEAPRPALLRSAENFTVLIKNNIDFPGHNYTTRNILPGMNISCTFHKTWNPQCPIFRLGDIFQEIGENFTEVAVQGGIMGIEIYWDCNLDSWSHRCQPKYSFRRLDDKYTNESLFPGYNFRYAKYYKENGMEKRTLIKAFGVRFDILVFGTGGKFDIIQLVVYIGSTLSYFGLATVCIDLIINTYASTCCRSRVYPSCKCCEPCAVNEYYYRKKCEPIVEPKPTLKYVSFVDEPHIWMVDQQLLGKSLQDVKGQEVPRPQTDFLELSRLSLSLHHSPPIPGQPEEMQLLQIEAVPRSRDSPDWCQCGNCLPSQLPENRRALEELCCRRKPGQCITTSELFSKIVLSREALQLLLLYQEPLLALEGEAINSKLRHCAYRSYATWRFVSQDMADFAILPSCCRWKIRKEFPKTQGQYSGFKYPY

Hepatocyte [3] = test: Intrinsic clearance in rat hepatocytes; assay type: ADME, cell-based, Liver
Monocyte [4] = test: Inhibition of BzATP-induced IL18 release from LPS-primed human monocytes by ELISA; assay type: functional, cell-based
Hepatocyte [5] = test: Intrinsic clearance in human hepatocytes; assay type: ADME, cell-based, Liver
Monocyte [6] = test: Inhibition of BzATP-induced IL1-beta release from LPS-primed human monocytes by ELISA; assay type: functional, cell-based
[7] = Clearance in Sprague-Dawley rat; assay type: ADME, organism-based; details: in vivo
[8] = Half life in Sprague-Dawley rat; assay type: ADME, organism-based; details: in vivo
[9] = Bioavailability in Sprague-Dawley rat; assay type: ADME, organism-based; details: in vivo
[10] = Volume of distribution at steady state in Sprague-Dawley rat; assay type: ADME, organism-based; details: in vivo, read-out: Vdss
[11] = target: T3, P2X purinoceptor 2 (Rattus norvegicus) (UniProt P49653); test: Activity at rat P2X2 receptor at 10 uM
T3 sequence (whole entry): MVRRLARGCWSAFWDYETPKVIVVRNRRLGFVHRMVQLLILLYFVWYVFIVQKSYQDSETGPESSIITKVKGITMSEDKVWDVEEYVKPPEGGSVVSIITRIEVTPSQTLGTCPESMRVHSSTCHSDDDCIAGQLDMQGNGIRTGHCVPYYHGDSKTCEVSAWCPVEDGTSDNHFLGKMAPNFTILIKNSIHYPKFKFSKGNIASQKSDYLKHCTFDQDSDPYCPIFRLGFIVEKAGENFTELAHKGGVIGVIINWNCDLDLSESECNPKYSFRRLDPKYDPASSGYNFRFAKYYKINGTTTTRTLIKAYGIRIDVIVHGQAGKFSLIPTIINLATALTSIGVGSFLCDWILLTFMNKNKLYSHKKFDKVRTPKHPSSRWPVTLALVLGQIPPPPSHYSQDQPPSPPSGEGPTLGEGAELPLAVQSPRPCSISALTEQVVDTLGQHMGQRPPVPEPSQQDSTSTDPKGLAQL

[12] = target: P2X purinoceptor 5 (Homo sapiens) (UniProt Q93086); test: Activity at human P2X5 receptor at 10 uM
Vasopressin V1a receptor = Vasopressin V1a receptor (Homo sapiens, UniProt P37288); test: Activity at vasopressin V1A receptor
[13] = Activity at sigma receptor; set-up: species or system Homo sapiens
Rattus norvegicus = species on record: Rattus norvegicus; test: Activity at rat P2X2/3 heteromeric receptor at 10 uM
[14] = target: T4, P2X purinoceptor 3 (Homo sapiens) (UniProt P56373); test: Activity at human P2X3 receptor at 10 uM
T4 sequence (whole entry): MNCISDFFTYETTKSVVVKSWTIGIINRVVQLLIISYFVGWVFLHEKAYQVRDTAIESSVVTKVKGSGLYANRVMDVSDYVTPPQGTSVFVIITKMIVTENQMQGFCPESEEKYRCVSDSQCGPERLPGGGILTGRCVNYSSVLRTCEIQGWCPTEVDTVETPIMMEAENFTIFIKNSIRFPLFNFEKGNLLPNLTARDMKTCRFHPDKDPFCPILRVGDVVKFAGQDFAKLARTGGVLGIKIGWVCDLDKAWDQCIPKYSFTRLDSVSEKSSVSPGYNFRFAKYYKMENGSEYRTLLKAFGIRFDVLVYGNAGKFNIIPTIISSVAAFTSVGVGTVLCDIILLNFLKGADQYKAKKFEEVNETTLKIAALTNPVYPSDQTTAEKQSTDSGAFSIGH

[15] = target: T5, P2X purinoceptor 4 (Homo sapiens) (UniProt Q99571); test: Activity at human P2X4 receptor at 10 uM
T5 sequence (whole entry): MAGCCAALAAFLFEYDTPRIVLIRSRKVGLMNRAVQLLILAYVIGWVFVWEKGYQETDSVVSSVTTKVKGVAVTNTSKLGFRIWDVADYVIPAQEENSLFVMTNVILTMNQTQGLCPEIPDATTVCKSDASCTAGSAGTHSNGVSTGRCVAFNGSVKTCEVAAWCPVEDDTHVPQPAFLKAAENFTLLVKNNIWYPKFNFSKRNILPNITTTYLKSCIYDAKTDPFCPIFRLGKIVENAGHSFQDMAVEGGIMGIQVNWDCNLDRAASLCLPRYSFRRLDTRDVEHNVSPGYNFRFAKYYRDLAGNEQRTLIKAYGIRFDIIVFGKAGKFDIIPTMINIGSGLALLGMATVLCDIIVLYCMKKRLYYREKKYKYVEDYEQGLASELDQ

[16] = target: T6, P2X purinoceptor 1 (Homo sapiens) (UniProt P51575); test: Activity at human P2X1 receptor at 10 uM
T6 sequence (whole entry): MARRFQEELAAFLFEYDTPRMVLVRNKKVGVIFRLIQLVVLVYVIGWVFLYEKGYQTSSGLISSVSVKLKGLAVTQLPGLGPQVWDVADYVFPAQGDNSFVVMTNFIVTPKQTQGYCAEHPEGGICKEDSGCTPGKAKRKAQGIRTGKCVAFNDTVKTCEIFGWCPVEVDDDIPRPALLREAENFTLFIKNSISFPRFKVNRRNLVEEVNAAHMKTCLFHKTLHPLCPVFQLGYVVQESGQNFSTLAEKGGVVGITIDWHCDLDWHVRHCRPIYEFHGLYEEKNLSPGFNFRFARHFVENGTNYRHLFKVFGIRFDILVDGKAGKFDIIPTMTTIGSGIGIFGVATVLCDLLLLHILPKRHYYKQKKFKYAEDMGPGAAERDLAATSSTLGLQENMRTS

[17] = Protein binding in rat plasma; assay type: ADME, cell-free; details: read-out: PPB (converted)

Chain of Vasopressin V1a receptor (P37288 whole entry): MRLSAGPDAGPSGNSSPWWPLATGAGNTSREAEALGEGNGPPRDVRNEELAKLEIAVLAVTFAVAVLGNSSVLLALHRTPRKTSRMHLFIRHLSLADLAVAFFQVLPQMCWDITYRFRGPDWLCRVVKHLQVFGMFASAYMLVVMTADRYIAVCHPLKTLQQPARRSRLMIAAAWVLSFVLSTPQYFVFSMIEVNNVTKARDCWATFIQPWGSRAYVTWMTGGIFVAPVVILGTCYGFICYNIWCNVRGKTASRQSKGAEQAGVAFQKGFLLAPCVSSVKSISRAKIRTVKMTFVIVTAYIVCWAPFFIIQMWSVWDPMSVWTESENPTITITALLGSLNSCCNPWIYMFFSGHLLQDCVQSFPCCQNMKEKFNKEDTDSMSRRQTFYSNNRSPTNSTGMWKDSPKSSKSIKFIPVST
Chain of P2X purinoceptor 5 (Homo sapiens) (Q93086 whole entry): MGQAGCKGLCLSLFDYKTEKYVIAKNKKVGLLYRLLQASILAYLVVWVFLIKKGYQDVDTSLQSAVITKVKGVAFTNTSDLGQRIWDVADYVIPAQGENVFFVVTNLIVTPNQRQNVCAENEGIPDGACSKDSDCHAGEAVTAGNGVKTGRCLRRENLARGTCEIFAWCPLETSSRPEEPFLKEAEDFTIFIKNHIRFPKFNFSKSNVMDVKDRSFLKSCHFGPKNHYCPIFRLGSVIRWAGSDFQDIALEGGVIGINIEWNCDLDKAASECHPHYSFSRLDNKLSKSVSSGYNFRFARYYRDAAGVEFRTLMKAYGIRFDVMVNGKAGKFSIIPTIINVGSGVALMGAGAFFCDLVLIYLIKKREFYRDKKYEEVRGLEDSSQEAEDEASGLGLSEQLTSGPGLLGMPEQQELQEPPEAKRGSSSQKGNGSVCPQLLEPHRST

| Kb (P2X purinoceptor 7 [1]) [nM] | IC50 (P2X purinoceptor 7 [2]; read-out: Log IC50 (converted)) [nM] | SMILES | other results |
| --- | --- | --- | --- |
| 10 | 100 | O=C(NCC12CC3CC(CC(C3)C1)C2)c1cc(O[C@H]2CCCNC2)ccc1Cl |  |
| 25.1 | 501 | O=C(NCC12CC3CC(CC(C3)C1)C2)c1cc(NC2CCNCC2)ccc1Cl |  |
| 15.8 | 316 | O=C(NCC12CC3CC(CC(C3)C1)C2)c1cc(C2CCNCC2)ccc1Cl |  |
| 15.8 | 63.1 | O=C(NCC12CC3CC(CC(C3)C1)C2)c1cc(CC2CCNCC2)ccc1Cl |  |
| 6.31 | 316 | O=C(NCC12CC3CC(CC(C3)C1)C2)c1cc(O[C@@H]2CCCNC2)ccc1Cl |  |
| > 10000 | > 10000 | O=C(NCC12CC3CC(CC(C3)C1)C2)c1c(Cl)cccc1OC1CCNCC1 |  |
| 5.01 |  | O=C(NCC12CC3CC(CC(C3)C1)C2)c1cc(NC2CCCNC2)ccc1Cl (racemic) | IC50 (P2X purinoceptor 7 [2]; read-out: IC50): 30 nM |
| 6.31 |  | O=C(NCC12CC3CC(CC(C3)C1)C2)c1cc(CC2CCCNC2)ccc1Cl (racemic) | IC50 (P2X purinoceptor 7 [2]; read-out: IC50): 30 nM |
| 15.8 | 631 | O=C(NCC12CC3CC(CC(C3)C1)C2)c1cc(OC2CCNCC2)ccc1Cl |  |

The next lines start with the compound.

| SMILES | Kb (P2X purinoceptor 7 [1]) [nM] | IC50 (P2X purinoceptor 7 [2]; read-out: Log IC50 (converted)) [nM] | other results |
| --- | --- | --- | --- |
| O=C(NCC12CC3CC(CC(C3)C1)C2)c1cc(CN2CC3CNCC(C2)O3)ccc1Cl |  |  | Kb (P2X purinoceptor 7 [2]): 25.1 nM |
| O=C(NCC12CC3CC(CC(C3)C1)C2)c1cc(CN2CCNCC2)ccc1Cl | 10 | 398 | CL (Hepatocyte [3]): < 5 µL/min; IC50 (Monocyte [4]): 39.8 nM; CL (Hepatocyte [5]): < 3 µL/min; IC50 (Monocyte [6]): 79.4 nM; clearance [7]: 13 mL/min/kg; half-life [8]: 5.2 h; bioavailability [9]: 79%; Vd [10]: 5.31 L/kg |
| O=C(NCC12CC3CC(CC(C3)C1)C2)c1cc(N2CCNCC2)ccc1Cl | 31.6 | 1260 |  |
| Cc1sc(CN2CCNCC2)cc1C(=O)NCC12CC3CC(CC(C3)C1)C2 | 316 | > 10000 |  |
| O=C(NCC12CC3CC(CC(C3)C1)C2)c1cc(C(=O)N2CC3CNCC(C2)O3)ccc1Cl |  |  | Activity [11]: inactive; Activity [12]: inactive; IC50 (Vasopressin V1a receptor): 7000 nM; IC50 [13]: 4000 nM; Activity (Rattus norvegicus): inactive; Activity [14]: inactive; Activity [15]: inactive |
| Cc1ccc(C(=O)N2CC3CNCC(C2)O3)cc1C(=O)NCC12CC3CC(CC(C3)C1)C2 |  |  | Activity [16]: inactive; Activity [11]: inactive; Activity [12]: inactive; IC50 (Vasopressin V1a receptor): 7000 nM; IC50 [13]: 4000 nM; Activity (Rattus norvegicus): inactive; fraction unbound [17]: 0.34; Activity [14]: inactive; Activity [15]: inactive; Kb (P2X purinoceptor 7 [2]): 15.8 nM |
| O=C(NCC12CC3CC(CC(C3)C1)C2)c1cc(CN2C[C@@H]3C[C@H]2CN3)ccc1Cl | 5.01 | 251 |  |
| O=C(NCC12CC3CC(CC(C3)C1)C2)c1ccc(CN2CCCCC2)cc1Cl | 126 | 794 |  |
| Cc1nnc(OC2CCNCC2)cc1C(=O)NCC12CC3CC(CC(C3)C1)C2 | 1580 | 794 |  |
| Cc1oc(CN2CCNCC2)cc1C(=O)NCC12CC3CC(CC(C3)C1)C2 | > 10000 | > 10000 | Activity (Monocyte [4]): Active; Activity (Monocyte [6]): inactive |
| O=C(NCC12CC3CC(CC(C3)C1)C2)c1cccc(CN2CCCCC2)c1Cl | 200 | > 10000 |  |
| O=C(NCC12CC3CC(CC(C3)C1)C2)c1nc(OC2CCCNC2)ncc1Cl (centres undefined) | 251 | 316 |  |
